In PubChem BioAssay AID248 (DTP/NCI, 2004):
Where “and” joins values, the source holds several entries; their conditions need not be identical. Equal entries are not always repeated. Toxic doses and inconclusive results are not listed. Rule as the data show it: active = T/C of 150% or more; inactive = T/C below 125%.

Tested on: L1210 leukemia ip in BDF1 mice, survival T/C
Assay: NCI In Vivo Anticancer Drug Screen. Data for tumor model L1210 Leukemia (intraperitoneal) in B6D2F1 (BDF1) mice
Conditions: endpoint: mean survival time, higher = longer survival
Procedure, shortened: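 Transplantable tumor model; survival measured in treated vs vehicle control mice. Value = treated/control.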

[1] = dose: 100.0 mg/kg/injection, schedule: Q01DX009 (ip), vehicle: Klucel (hydroxypropylcellulose) (HPC)
[2] = dose: 100.0 mg/kg/injection, schedule: Q04DX003 (ip), vehicle: Klucel (hydroxypropylcellulose) (HPC)
[3] = dose: 200.0 mg/kg/injection, schedule: Q01DX009 (ip), vehicle: Klucel (hydroxypropylcellulose) (HPC)
[4] = dose: 200.0 mg/kg/injection, schedule: Q04DX003 (ip), vehicle: Klucel (hydroxypropylcellulose) (HPC)
[5] = dose: 400.0 mg/kg/injection, schedule: Q01DX009 (ip), vehicle: Klucel (hydroxypropylcellulose) (HPC)
[6] = dose: 400.0 mg/kg/injection, schedule: Q04DX003 (ip), vehicle: Klucel (hydroxypropylcellulose) (HPC)
[7] = dose: 25.0 mg/kg/injection, schedule: Q04DX003 (ip), vehicle: Klucel (hydroxypropylcellulose) (HPC)
[8] = dose: 50.0 mg/kg/injection, schedule: Q04DX003 (ip), vehicle: Klucel (hydroxypropylcellulose) (HPC)
[9] = dose: 100.0 mg/kg/injection, schedule: Q01DX001 (ip), vehicle: carboxymethylcellulose (CMC)
[10] = dose: 200.0 mg/kg/injection, schedule: Q01DX001 (ip), vehicle: carboxymethylcellulose (CMC)
[11] = dose: 400.0 mg/kg/injection, schedule: Q01DX001 (ip), vehicle: carboxymethylcellulose (CMC)
[12] = dose: 100.0 mg/kg/injection, schedule: Q04DX003 (ip), vehicle: saline with Tween-80
[13] = dose: 200.0 mg/kg/injection, schedule: Q04DX003 (ip), vehicle: saline with Tween-80
[14] = dose: 400.0 mg/kg/injection, schedule: Q04DX003 (ip), vehicle: saline with Tween-80
[15] = dose: 100.0 mg/kg/injection, schedule: Q01DX001 (ip), vehicle: saline
[16] = dose: 200.0 mg/kg/injection, schedule: Q01DX001 (ip), vehicle: saline
[17] = dose: 400.0 mg/kg/injection, schedule: Q01DX001 (ip), vehicle: saline
[18] = dose: 50.0 mg/kg/injection, schedule: Q01DX009 (ip), vehicle: Klucel (hydroxypropylcellulose) (HPC)

Measured: T/C

C(=C\c1cnc2ccccc2n1)/c1ccc2c(c1)OCO2
inactive: [1] 89 % of control | [2] 95 % of control | [3] 92 % of control | [4] 91 % of control | [5] 97 % of control | [6] 93 % of control

C=CCC[P+](c1ccccc1)(c1ccccc1)c1ccccc1
inactive: dose: 12.5 mg/kg/injection, schedule: Q04DX003 (ip), vehicle: Klucel (hydroxypropylcellulose) (HPC) 97 % of control | dose: 16.0 mg/kg/injection, schedule: Q04DX003 (ip), vehicle: Klucel (hydroxypropylcellulose) (HPC) 90 % of control | [7] 104 % of control | dose: 35.0 mg/kg/injection, schedule: Q04DX003 (ip), vehicle: Klucel (hydroxypropylcellulose) (HPC) 101 % of control | [8] 95 % of control and 103 % of control

Cc1ncc(CC(=O)O)c2c1OC(C)(C)OC2
inactive: [9] 101 % of control | [10] 106 % of control | [11] 98 % of control

O=C(Cc1ccccc1)c1ccc(OCC2CO2)cc1 (stereo unspecified)
inactive: [12] 96 % of control | [13] 94 % of control | [14] 94 % of control

CC(=O)OCC(=O)[C@@]1(O)CC[C@H]2[C@@H]3CCC4=CC(=O)[C@H](C)C[C@]4(C)[C@H]3[C@@H](O)C[C@@]21C
inactive: dose: 50.0 mg/kg/injection, schedule: Q01DX001 (sc), vehicle: steriod suspending solution 111 % of control | dose: 100.0 mg/kg/injection, schedule: Q01DX001 (sc), vehicle: steriod suspending solution 102 % of control | dose: 100.0 mg/kg/injection, schedule: Q04DX003 (sc), vehicle: steriod suspending solution 100 % of control | dose: 200.0 mg/kg/injection, schedule: Q01DX001 (sc), vehicle: steriod suspending solution 102 % of control | dose: 200.0 mg/kg/injection, schedule: Q04DX003 (sc), vehicle: steriod suspending solution 105 % of control | dose: 400.0 mg/kg/injection, schedule: Q01DX001 (sc), vehicle: steriod suspending solution 110 % of control | dose: 400.0 mg/kg/injection, schedule: Q04DX003 (sc), vehicle: steriod suspending solution 107 % of control

NCC(OCCCc1ccccc1)C(Cl)(Cl)Cl (stereo unspecified)
inactive: dose: 12.5 mg/kg/injection, schedule: Q04DX003 (ip), vehicle: saline with Tween-80 105 % of control | dose: 25.0 mg/kg/injection, schedule: Q01DX009 (ip), vehicle: saline with Tween-80 105 % of control | dose: 25.0 mg/kg/injection, schedule: Q04DX003 (ip), vehicle: saline with Tween-80 105 % of control | dose: 50.0 mg/kg/injection, schedule: Q01DX009 (ip), vehicle: saline with Tween-80 113 % of control | dose: 50.0 mg/kg/injection, schedule: Q04DX003 (ip), vehicle: saline with Tween-80 100 % of control

NNc1ccc2cccc(O)c2n1
inactive: [9] 90 % of control | [10] 93 % of control

OCC1OC(n2c(Cl)nc3ccccc32)C(O)C1O (stereo unspecified)
inactive: [15] 97 % of control | [16] 103 % of control | [17] 103 % of control

CCOC(=O)Oc1c(OC)cc(C(=O)O[C@@H]2C[C@@H]3CN4CCc5c([nH]c6cc(OC)ccc56)[C@H]4C[C@@H]3[C@H](C(=O)OC)[C@H]2OC)cc1OC
inactive: [7] 101 % of control | [8] 106 % of control | [2] 95 % of control | [4] 98 % of control

O=C(CBr)c1cc(-c2ccc(Cl)c(Cl)c2)nc2c(Cl)cc(Cl)cc12
inactive: [15] 94 % of control | [16] 95 % of control | [17] 94 % of control

[CH3][Pb]([CH3])([CH3])[O]P(=O)(O)c1ccccc1
inactive: dose: 3.12 mg/kg/injection, schedule: Q04DX002 (ip), vehicle: saline 98 % of control | dose: 6.25 mg/kg/injection, schedule: Q04DX002 (ip), vehicle: saline 103 % of control | dose: 12.5 mg/kg/injection, schedule: Q04DX002 (ip), vehicle: saline 98 % of control and 101 % of control

Cn1c(=O)c2c(nc(N/N=C/c3cccc4ccccc34)n2C)n(C)c1=O
inactive: dose: 44.0 mg/kg/injection, schedule: Q01DX Z (ip), vehicle: saline 90 % of control | dose: 66.0 mg/kg/injection, schedule: Q01DX Z (ip), vehicle: saline 94 % of control | dose: 100.0 mg/kg/injection, schedule: Q01DX Z (ip), vehicle: saline 92 % of control

CCCCC(=O)N/N=C\c1ccc(N(CC)CC)cc1
inactive: [9] 95 % of control | [10] 87 % of control | [11] 87 % of control

CC/[N+]([O-])=C/c1ncc([N+](=O)[O-])n1C
inactive: dose: 100.0 mg/kg/injection, schedule: Q04DX002 (ip), vehicle: saline 114 % of control | dose: 200.0 mg/kg/injection, schedule: Q04DX002 (ip), vehicle: saline 118 % of control | dose: 400.0 mg/kg/injection, schedule: Q04DX002 (ip), vehicle: saline 114 % of control

Cc1ccc([N+](=O)[O-])cc1NC(=O)NCCO
inactive: dose: 100.0 mg/kg/injection, schedule: Q04DX003 (ip), vehicle: saline 106 % of control | dose: 200.0 mg/kg/injection, schedule: Q04DX003 (ip), vehicle: saline 106 % of control | dose: 400.0 mg/kg/injection, schedule: Q04DX003 (ip), vehicle: saline 103 % of control

C=C([Si](C)(C)C)[Si](C)(C)C
inactive: [12] 102 % of control | [13] 102 % of control | [14] 94 % of control

COc1ccc(C(C#N)N2CCOCC2)cc1 (stereo unspecified)
inactive: [18] 92 % of control | [1] 93 % of control | [2] 96 % of control | [3] 96 % of control | [4] 91 % of control

COc1ccc(OCCOC(=O)Nc2ccc(C)cc2[N+](=O)[O-])cc1
inactive: [18] 97 % of control | [1] 90 % of control | [2] 103 % of control | [3] 90 % of control | [4] 103 % of control | [6] 100 % of control

O=C1NC(CCl)(CCl)CO1
inactive: dose: 0.5 mg/kg/injection, schedule: Q01DX001 (ip), vehicle: saline 94 % of control | dose: 1.0 mg/kg/injection, schedule: Q01DX001 (ip), vehicle: saline 94 % of control | dose: 2.0 mg/kg/injection, schedule: Q01DX001 (ip), vehicle: saline 105 % of control

CC(C)(C)NC(=O)C1CC2(C)CCC1C2(C)C (stereo unspecified)
inactive: dose: 75.0 mg/kg/injection, schedule: Q01DX001 (ip), vehicle: other 93 % of control | dose: 150.0 mg/kg/injection, schedule: Q01DX001 (ip), vehicle: other 93 % of control

O=C(O)CCSC(c1ccccc1)(c1ccccc1)c1ccccc1
inactive: dose: 25.0 mg/kg/injection, schedule: Q01DX009 (ip), vehicle: saline 102 % of control | dose: 50.0 mg/kg/injection, schedule: Q01DX009 (ip), vehicle: saline 103 % of control | dose: 100.0 mg/kg/injection, schedule: Q01DX009 (ip), vehicle: saline 96 % of control | dose: 200.0 mg/kg/injection, schedule: Q01DX009 (ip), vehicle: saline 100 % of control | dose: 300.0 mg/kg/injection, schedule: Q01DX009 (ip), vehicle: saline 96 % of control | dose: 400.0 mg/kg/injection, schedule: Q01DX009 (ip), vehicle: saline 96 % of control

O=S1(=O)C(Cl)c2ccccc2-c2ccccc2C1Cl (stereo unspecified)
inactive: dose: 25.0 mg/kg/injection, schedule: Q04DX002 (ip), vehicle: gum acacia 89 % of control | dose: 50.0 mg/kg/injection, schedule: Q04DX002 (ip), vehicle: gum acacia 89 % of control | dose: 100.0 mg/kg/injection, schedule: Q04DX002 (ip), vehicle: gum acacia 93 % of control

OC12CCCCC1Oc1ccc3ccccc3c12 (stereo unspecified)
inactive: [15] 103 % of control | [16] 113 % of control | [17] 100 % of control

CCC(=O)Nc1ccc(Cl)cc1OC
inactive: [1] 100 % of control | [3] 102 % of control | [5] 100 % of control

C/C=C(/C)C(=O)OCCCCCCCCC
inactive: dose: 100.0 mg/kg/injection, schedule: Q04DX002 (ip), vehicle: Klucel (hydroxypropylcellulose) (HPC) 102 % of control | dose: 200.0 mg/kg/injection, schedule: Q04DX002 (ip), vehicle: Klucel (hydroxypropylcellulose) (HPC) 102 % of control | dose: 400.0 mg/kg/injection, schedule: Q04DX002 (ip), vehicle: Klucel (hydroxypropylcellulose) (HPC) 94 % of control

O=C(O)C1c2ccccc2-c2ccccc21
inactive: [15] 113 % of control | [16] 91 % of control | [17] 101 % of control
